# Laboratory results as given in publication PMC10850145, “Hormonal steroids induce multidrug resistance and stress response genes in Neisseria gonorrhoeae by binding to MtrR” (Nature Communications, 2024).
# Where “and” joins values, the source holds several entries; their conditions need not be identical. Identical values can stand only once. Like-named read-outs stand apart in the source and are kept apart here.
# Tested on: mtrC-lacZ expression
# Type: cell-based, Neisseria gonorrhoeae
# Details: for Plate-6 (Testosterone) Miller units, Mean / Plate-6 (Testosterone) Miller units: left (mtrC) half of sheet; for β-galactosidase activity, Mean / β-galactosidase activity, single replicate: mtrCDE block (c1-c37), ΔmtrR + mtrR R176E in trans
# [1] = WT, testosterone 6.25 µM, right block Plate-4
# [2] = WT, testosterone 25 µM, right block Plate-4
# [3] = WT, testosterone 50 µM, right block Plate-4
# [4] = fourth strain (lower plate half, wells 7-12; not named), testosterone 6.25 µM, right block Plate-4
# [5] = fourth strain (lower plate half, wells 7-12; not named), testosterone 12.5 µM, right block Plate-4
# [6] = mtrC-lacZ, ΔmtrR + mtrR D171A in trans, 6.25 µM hormone, single replicate
# [7] = mtrC-lacZ, ΔmtrR + mtrR D171A in trans, 12.5 µM hormone, single replicate
# [8] = mtrC-lacZ, ΔmtrR + mtrR D171A in trans, 25 µM hormone, single replicate
# [9] = mtrC-lacZ, ΔmtrR + mtrR D171A in trans, 50 µM hormone, single replicate
# [10] = mtrC-lacZ, ΔmtrR + mtrR WT in trans, 6.25 µM hormone, single replicate
# [11] = mtrC-lacZ, ΔmtrR + mtrR WT in trans, 12.5 µM hormone, single replicate
# [12] = mtrC-lacZ, ΔmtrR + mtrR WT in trans, 25 µM hormone, single replicate
# [13] = mtrC-lacZ, ΔmtrR + mtrR WT in trans, 50 µM hormone, single replicate
# [14] = mtrCDE, fourth strain (lower plate half, wells 7-12; not named), testosterone 1 µM, left block Plate-4
# [15] = mtrCDE, fourth strain (lower plate half, wells 7-12; not named), testosterone 10 µM, left block Plate-4
# [16] = mtrCDE, fourth strain (lower plate half, wells 7-12; not named), testosterone 25 µM, left block Plate-4
# [17] = mtrCDE, fourth strain (lower plate half, wells 7-12; not named), testosterone 50 µM, left block Plate-4
# [18] = mtrCDE, fourth strain (lower plate half, wells 7-12; not named), testosterone 100 µM, left block Plate-4
smiles,measurement,setting,value
"C[C@]12CC[C@H]3[C@@H](CCC4=CC(=O)CC[C@@]43C)[C@@H]1CC[C@@H]2O [Testosterone, testosterone]","Miller units, Mean","6.25 µM hormone, plate columns 1-6 (WT), mean of plate rows 1-4 (mtrC)",141 Miller units
same,Miller units,"6.25 µM hormone, plate columns 1-6 (WT), plate rows 1-4 (mtrC), single well",164 Miller units and 134 Miller units and 127 Miller units and 139 Miller units
same,Miller units,"6.25 µM hormone, plate columns 7-12 (second strain not given), plate rows 1-4 (mtrC), single well",276 Miller units and 252 Miller units and 246 Miller units and 285 Miller units
same,"Miller units, Mean","6.25 µM hormone, plate columns 7-12 (second strain), mean of plate rows 1-4 (mtrC)",265 Miller units
same,"Plate-6 (Testosterone) Miller units, Mean","6.25 µM, plate column 3, mean of plate rows 5-8",43 Miller units
same,Plate-6 (Testosterone) Miller units,"6.25 µM, plate column 3, plate rows 5-8, single wells",39 Miller units and 46 Miller units and 47 Miller units
same,"Plate-6 (Testosterone) Miller units, Mean","6.25 µM, plate column 9, mean of plate rows 5-8",64 Miller units
same,Plate-6 (Testosterone) Miller units,"6.25 µM, single wells",55 Miller units and 57 Miller units and 65 Miller units and 80 Miller units
same,"Miller units, Mean","12.5 µM hormone, plate columns 1-6 (WT), mean of plate rows 1-4 (mtrC)",166 Miller units
same,Miller units,"12.5 µM hormone, plate columns 1-6 (WT), plate rows 1-4 (mtrC), single well",186 Miller units and 164 Miller units and 155 Miller units and 161 Miller units
same,Miller units,"12.5 µM hormone, plate columns 7-12 (second strain not given), plate rows 1-4 (mtrC), single well",296 Miller units and 248 Miller units and 237 Miller units and 196 Miller units
same,"Miller units, Mean","12.5 µM hormone, plate columns 7-12 (second strain), mean of plate rows 1-4 (mtrC)",244 Miller units
same,"Plate-6 (Testosterone) Miller units, Mean","12.5 µM, plate column 4, mean of plate rows 5-8",52 Miller units
same,Plate-6 (Testosterone) Miller units,"12.5 µM, plate column 4, plate rows 5-8, single wells",51 Miller units and 50 Miller units and 56 Miller units and 52 Miller units
same,"Plate-6 (Testosterone) Miller units, Mean","12.5 µM, plate column 10, mean of plate rows 5-8",62 Miller units
same,Plate-6 (Testosterone) Miller units,"12.5 µM, plate column 10, plate rows 5-8, single wells",58 Miller units and 54 Miller units and 63 Miller units and 74 Miller units
same,"Miller units, Mean","25 µM hormone, plate columns 1-6 (WT), mean of plate rows 1-4 (mtrC)",178 Miller units
same,Miller units,"25 µM hormone, plate columns 1-6 (WT), plate rows 1-4 (mtrC), single well",189 Miller units and 186 Miller units and 165 Miller units and 170 Miller units
same,Miller units,"25 µM hormone, plate columns 7-12 (second strain not given), plate rows 1-4 (mtrC), single well",284 Miller units and 276 Miller units and 289 Miller units and 254 Miller units
same,"Miller units, Mean","25 µM hormone, plate columns 7-12 (second strain), mean of plate rows 1-4 (mtrC)",276 Miller units
same,"Plate-6 (Testosterone) Miller units, Mean","25 µM, plate column 5, mean of plate rows 5-8",63 Miller units
same,Plate-6 (Testosterone) Miller units,"25 µM, plate column 5, plate rows 5-8, single wells",68 Miller units and 55 Miller units and 57 Miller units and 70 Miller units
same,"Plate-6 (Testosterone) Miller units, Mean","25 µM, plate column 11, mean of plate rows 5-8",65 Miller units
same,Plate-6 (Testosterone) Miller units,"25 µM, plate column 11, plate rows 5-8, single wells",64 Miller units and 60 Miller units and 68 Miller units and 67 Miller units
same,"Miller units, Mean","50 µM hormone, plate columns 1-6 (WT), mean of plate rows 1-4 (mtrC)",195 Miller units
same,Miller units,"50 µM hormone, plate columns 1-6 (WT), plate rows 1-4 (mtrC), single well",222 Miller units and 215 Miller units and 166 Miller units and 177 Miller units
same,Miller units,"50 µM hormone, plate columns 7-12 (second strain not given), plate rows 1-4 (mtrC), single well",310 Miller units and 287 Miller units and 255 Miller units and 237 Miller units
same,"Miller units, Mean","50 µM hormone, plate columns 7-12 (second strain), mean of plate rows 1-4 (mtrC)",272 Miller units
same,"Plate-6 (Testosterone) Miller units, Mean","50 µM, plate column 6, mean of plate rows 5-8",68 Miller units
same,Plate-6 (Testosterone) Miller units,"50 µM, plate column 6, plate rows 5-8, single wells",76 Miller units and 71 Miller units and 62 Miller units and 63 Miller units
same,"Plate-6 (Testosterone) Miller units, Mean","50 µM, plate column 12, mean of plate rows 5-8",57 Miller units
same,Plate-6 (Testosterone) Miller units,"50 µM, single wells",65 Miller units and 49 Miller units and 56 Miller units and 58 Miller units
same,"Miller units, Mean","Mean of plate rows 1-4, plate columns 1-6 (first strain), 6.25 µM hormone",69 Miller units
same,"Miller units, Mean","Mean of plate rows 1-4, plate columns 1-6 (first strain), 12.5 µM hormone",81 Miller units
same,"Miller units, Mean","Mean of plate rows 1-4, plate columns 1-6 (first strain), 25 µM hormone",98 Miller units
same,"Miller units, Mean","Mean of plate rows 1-4, plate columns 1-6 (first strain), 50 µM hormone",117 Miller units
same,"Miller units, Mean","Mean of plate rows 1-4, plate columns 7-12 (second strain), 6.25 µM hormone",96 Miller units
same,"Miller units, Mean","Mean of plate rows 1-4, plate columns 7-12 (second strain), 12.5 µM hormone",102 Miller units
same,"Miller units, Mean","Mean of plate rows 1-4, plate columns 7-12 (second strain), 25 µM hormone",112 Miller units
same,"Miller units, Mean","Mean of plate rows 1-4, plate columns 7-12 (second strain), 50 µM hormone",119 Miller units
same,"Miller units, Mean",[1],81 Miller units
same,"Miller units, single replicate",[1],103 Miller units and 88 Miller units
same,"Miller units, single replicate","WT, testosterone 12.5 µM, right block Plate-4",126 Miller units
same,"Miller units, Mean",[2],130 Miller units
same,"Miller units, single replicate",[2],144 Miller units and 138 Miller units
same,"Miller units, Mean",[3],134 Miller units
same,"Miller units, single replicate",[3],161 Miller units and 150 Miller units
same,induction of mtrC expression,"complemented (MtrR+) strains, increasing hormone",could be induced
same,"Miller units, Mean",[4],47 Miller units
same,"Miller units, single replicate",[4],46 Miller units
same,"Miller units, Mean",[5],55 Miller units
same,"Miller units, single replicate",[5],56 Miller units
same,"Miller units, Mean","fourth strain (lower plate half, wells 7-12; not named), testosterone 25 µM, right block Plate-4",85 Miller units
same,"Miller units, Mean","fourth strain (lower plate half, wells 7-12; not named), testosterone 50 µM, right block Plate-4",79 Miller units
same,induction of mtrC expression,loss of MtrR or MtrR-D171A strain,abrogated
same,"Miller units, Mean","mtrC-lacZ, WT, 6.25 µM hormone",141 Miller units
same,"Miller units, Mean","mtrC-lacZ, WT, 12.5 µM hormone",166 Miller units
same,"Miller units, Mean","mtrC-lacZ, WT, 25 µM hormone",178 Miller units
same,"Miller units, Mean","mtrC-lacZ, WT, 50 µM hormone",195 Miller units
same,Miller units,[6],162 Miller units
same,β-galactosidase activity (Miller units),[6],162 Miller units and 167 Miller units and 161 Miller units and 191 Miller units
same,Miller units,[7],176 Miller units
same,β-galactosidase activity (Miller units),[7],176 Miller units and 177 Miller units and 161 Miller units and 186 Miller units
same,Miller units,[8],185 Miller units
same,β-galactosidase activity (Miller units),[8],185 Miller units and 179 Miller units and 168 Miller units and 147 Miller units
same,Miller units,[9],166 Miller units
same,β-galactosidase activity (Miller units),[9],166 Miller units and 158 Miller units and 156 Miller units
same,Miller units,[10],108 Miller units and 127 Miller units and 114 Miller units and 153 Miller units
same,β-galactosidase activity (Miller units),[10],108 Miller units and 127 Miller units and 114 Miller units and 153 Miller units
same,Miller units,[11],125 Miller units and 124 Miller units and 120 Miller units and 149 Miller units
same,β-galactosidase activity (Miller units),[11],125 Miller units and 124 Miller units and 120 Miller units and 149 Miller units
same,Miller units,[12],133 Miller units and 137 Miller units and 127 Miller units
same,β-galactosidase activity (Miller units),[12],133 Miller units and 137 Miller units and 127 Miller units
same,Miller units,[13],146 Miller units and 140 Miller units and 175 Miller units
same,β-galactosidase activity (Miller units),[13],146 Miller units and 140 Miller units and 175 Miller units
same,β-galactosidase activity (Miller units),"mtrC-lacZ, ΔmtrR strain, 6.25 µM hormone, single replicate",246 Miller units
same,β-galactosidase activity (Miller units),"mtrC-lacZ, ΔmtrR strain, 12.5 µM hormone, single replicate",237 Miller units
same,β-galactosidase activity (Miller units),"mtrC-lacZ, ΔmtrR strain, 25 µM hormone, single replicate",289 Miller units
same,β-galactosidase activity (Miller units),"mtrC-lacZ, ΔmtrR strain, 50 µM hormone, single replicate",255 Miller units
same,"Miller units, Mean","mtrC-lacZ, ΔmtrR, 6.25 µM hormone",265 Miller units
same,"Miller units, Mean","mtrC-lacZ, ΔmtrR, 12.5 µM hormone",244 Miller units
same,"Miller units, Mean","mtrC-lacZ, ΔmtrR, 25 µM hormone",276 Miller units
same,"Miller units, Mean","mtrC-lacZ, ΔmtrR, 50 µM hormone",272 Miller units
same,"β-galactosidase activity, Mean",1 µM,178 Miller units
same,"β-galactosidase activity, single replicate",1 µM,184 Miller units and 192 Miller units and 127 Miller units and 209 Miller units
same,"β-galactosidase activity, Mean",10 µM,206 Miller units
same,"β-galactosidase activity, single replicate",10 µM,290 Miller units and 186 Miller units and 155 Miller units and 194 Miller units
same,"β-galactosidase activity, single replicate",25 µM,208 Miller units and 213 Miller units and 178 Miller units and 198 Miller units
same,"β-galactosidase activity, Mean",50 µM,224 Miller units
same,"β-galactosidase activity, single replicate",50 µM,262 Miller units and 219 Miller units and 198 Miller units and 217 Miller units
same,"β-galactosidase activity, Mean",100 µM,238 Miller units
same,"β-galactosidase activity, single replicate",100 µM,255 Miller units and 223 Miller units and 213 Miller units and 260 Miller units
same,"Miller units, Mean","mtrCDE, WT, testosterone 1 µM, left block Plate-4",138 Miller units
same,"Miller units, Mean","mtrCDE, WT, testosterone 10 µM, left block Plate-4",235 Miller units
same,"Miller units, Mean","mtrCDE, WT, testosterone 25 µM, left block Plate-4",264 Miller units
same,"Miller units, Mean","mtrCDE, WT, testosterone 50 µM, left block Plate-4",229 Miller units
same,"Miller units, Mean","mtrCDE, WT, testosterone 100 µM, left block Plate-4",248 Miller units
same,"Miller units, Mean",[14],157 Miller units
same,"Miller units, single replicate",[14],182 Miller units
same,"Miller units, Mean",[15],190 Miller units
same,"Miller units, single replicate",[15],196 Miller units
same,"Miller units, Mean",[16],192 Miller units
same,"Miller units, single replicate",[16],225 Miller units and 177 Miller units
same,"Miller units, Mean",[17],201 Miller units
same,"Miller units, single replicate",[17],192 Miller units and 186 Miller units
same,"Miller units, Mean",[18],240 Miller units
same,"Miller units, single replicate",[18],256 Miller units and 229 Miller units
same,"Miller units, Mean","mtrCDE, third strain (lower plate half, wells 1-6; not named), testosterone 1 µM, left block Plate-4",107 Miller units
same,"Miller units, Mean","mtrCDE, third strain (lower plate half, wells 1-6; not named), testosterone 10 µM, left block Plate-4",177 Miller units
same,"Miller units, Mean","mtrCDE, third strain (lower plate half, wells 1-6; not named), testosterone 25 µM, left block Plate-4",181 Miller units
same,"Miller units, Mean","mtrCDE, third strain (lower plate half, wells 1-6; not named), testosterone 50 µM, left block Plate-4",213 Miller units
same,"Miller units, Mean","mtrCDE, third strain (lower plate half, wells 1-6; not named), testosterone 100 µM, left block Plate-4",227 Miller units
same,"Miller units, Mean","mtrCDE, ΔmtrR, testosterone 1 µM, left block Plate-4",334 Miller units
same,"Miller units, Mean","mtrCDE, ΔmtrR, testosterone 10 µM, left block Plate-4",358 Miller units
